Reference: ChEMBL document CHEMBL3045862, “PRE-CLINICAL AND CLINICAL PHARMACOKINETICS OF THE DIASTEREOMERS OF ARTEETHER, A POTENT ANTIMALARIAL” (Med Chem Res, 2004)

Tests used:
[1] = Mean residence time in Rattus norvegicus Sprague-Dawley (rat) at 30 mg/kg, administered intramuscularly; format: ADME, organism-based; set-up: dose 30 mg/kg, route intramuscular; details: in vivo, im
[2] = Tmax in Macaca mulatta (Rhesus monkey) at 7.5 mg/kg, administered intramuscularly; format: ADME, organism-based; set-up: dose 7.5 mg/kg, route intramuscular; details: in vivo, im
[3] = Mean residence time in Rattus norvegicus Sprague-Dawley (rat) at 2 mg/kg, iv; format: ADME, organism-based; set-up: dose 2 mg/kg, route intravenous; details: in vivo
Rhesus monkey [4] = test: Clearance in Macaca mulatta (Rhesus monkey) at 4 mg/kg, iv; format: ADME, organism-based; set-up: dose 4 mg/kg, route intravenous; details: in vivo
[5] = Cmax in Macaca mulatta (Rhesus monkey) at 7.5 mg/kg, administered intramuscularly; format: ADME, organism-based; set-up: dose 7.5 mg/kg, route intramuscular; details: in vivo, im
[6] = Tmax in Rattus norvegicus Sprague-Dawley (rat) at 9 mg/kg, administered intramuscularly; format: ADME, organism-based; set-up: dose 9 mg/kg, route intramuscular; details: in vivo, im
Rattus norvegicus [7] = test: Volume of distribution in Rattus norvegicus Sprague-Dawley (rat) at 30 mg/kg, administered intramuscularly; format: ADME, organism-based; set-up: dose 30 mg/kg, route intramuscular; details: in vivo, im
[8] = Elimination half life in Rattus norvegicus Sprague-Dawley (rat) at 9 mg/kg, administered intramuscularly; format: ADME, organism-based; set-up: dose 9 mg/kg, route intramuscular; details: in vivo, im, read-out: beta t1/2 (converted)
[9] = Cmax in Rattus norvegicus Sprague-Dawley (rat) at 9 mg/kg, po; format: ADME, organism-based; set-up: dose 9 mg/kg, route oral; details: in vivo
Rattus norvegicus [10] = test: Dose normalized AUC in Rattus norvegicus Sprague-Dawley (rat) at 2 mg/kg, iv; format: ADME, organism-based; set-up: dose 2 mg/kg, route intravenous; details: in vivo
Rattus norvegicus [11] = test: Dose normalized AUC in Rattus norvegicus Sprague-Dawley (rat) at 9 mg/kg, administered intramuscularly; format: ADME, organism-based; set-up: dose 9 mg/kg, route intramuscular; details: in vivo, im
Rattus norvegicus [12] = test: AUC (0 to infinity) in Rattus norvegicus Sprague-Dawley (rat) at 9 mg/kg, po; format: ADME, organism-based, Plasma; set-up: time infinity, dose 9 mg/kg, route oral; details: in vivo
[13] = Volume of distribution in Rattus norvegicus Sprague-Dawley (rat) at 2 mg/kg, iv; format: ADME, organism-based; set-up: dose 2 mg/kg, route intravenous; details: in vivo
[14] = Mean residence time in Macaca mulatta (Rhesus monkey) at 50 mg/kg, po; format: ADME, organism-based; set-up: dose 50 mg/kg, route oral; details: in vivo
Homo sapiens = organism: Homo sapiens; test: Dose normalized AUC in Homo sapiens (human) at 150 mg; format: ADME, organism-based; details: in vivo
[15] = Mean residence time in Rattus norvegicus Sprague-Dawley (rat) at 30 mg/kg, po; format: ADME, organism-based; set-up: dose 30 mg/kg, route oral; details: in vivo
[16] = Volume of distribution in Macaca mulatta (Rhesus monkey) at 4 mg/kg, iv; format: ADME, organism-based; set-up: dose 4 mg/kg, route intravenous; details: in vivo
[17] = Tmax in Rattus norvegicus Sprague-Dawley (rat) at 9 mg/kg, po; format: ADME, organism-based; set-up: dose 9 mg/kg, route oral; details: in vivo
[18] = Tmax in Homo sapiens (human) at 150 mg; format: ADME, organism-based; details: in vivo
[19] = Cmax in Rattus norvegicus Sprague-Dawley (rat) at 17.5 mg/kg, administered intramuscularly; format: ADME, organism-based; set-up: dose 17.5 mg/kg, route intramuscular; details: in vivo, im
[20] = Mean residence time in Rattus norvegicus Sprague-Dawley (rat) at 9 mg/kg, administered intramuscularly; format: ADME, organism-based; set-up: dose 9 mg/kg, route intramuscular; details: in vivo, im
[21] = Elimination half life in Rattus norvegicus Sprague-Dawley (rat) at 17.5 mg/kg, administered intramuscularly; format: ADME, organism-based; set-up: dose 17.5 mg/kg, route intramuscular; details: in vivo, im, read-out: beta t1/2 (converted)
Rattus norvegicus [22] = test: Dose normalized AUC in Rattus norvegicus Sprague-Dawley (rat) at 30 mg/kg, po; format: ADME, organism-based; set-up: dose 30 mg/kg, route oral; details: in vivo
[23] = Mean residence time in Rattus norvegicus Sprague-Dawley (rat) at 17.5 mg/kg, po; format: ADME, organism-based; set-up: dose 17.5 mg/kg, route oral; details: in vivo
[24] = Mean residence time in Macaca mulatta (Rhesus monkey) at 7.5 mg/kg, administered intramuscularly; format: ADME, organism-based; set-up: dose 7.5 mg/kg, route intramuscular; details: in vivo, im
[25] = Cmax in Rattus norvegicus Sprague-Dawley (rat) at 9 mg/kg, administered intramuscularly; format: ADME, organism-based; set-up: dose 9 mg/kg, route intramuscular; details: in vivo, im
[26] = Cmax in Macaca mulatta (Rhesus monkey) at 50 mg/kg, po; format: ADME, organism-based; set-up: dose 50 mg/kg, route oral; details: in vivo
Rattus norvegicus [27] = test: Dose normalized AUC in Rattus norvegicus Sprague-Dawley (rat) at 9 mg/kg, po; format: ADME, organism-based; set-up: dose 9 mg/kg, route oral; details: in vivo
Rattus norvegicus [28] = test: AUC (0 to infinity) in Rattus norvegicus Sprague-Dawley (rat) at 30 mg/kg, po; format: ADME, organism-based, Plasma; set-up: time infinity, dose 30 mg/kg, route oral; details: in vivo
[29] = Tmax in Rattus norvegicus Sprague-Dawley (rat) at 30 mg/kg, administered intramuscularly; format: ADME, organism-based; set-up: dose 30 mg/kg, route intramuscular; details: in vivo, im
[30] = Clearance in Homo sapiens (human) at 150 mg; format: ADME, organism-based; details: in vivo
Rattus norvegicus [31] = test: Volume of distribution in Rattus norvegicus Sprague-Dawley (rat) at 17.5 mg/kg, po; format: ADME, organism-based; set-up: dose 17.5 mg/kg, route oral; details: in vivo
Rattus norvegicus [32] = test: AUC (0 to infinity) in Rattus norvegicus Sprague-Dawley (rat) at 9 mg/kg, administered intramuscularly; format: ADME, organism-based, Plasma; set-up: time infinity, dose 9 mg/kg, route intramuscular; details: in vivo, im
Rhesus monkey [33] = test: Dose normalized AUC in Macaca mulatta (Rhesus monkey) at 50 mg/kg, po; format: ADME, organism-based; set-up: dose 50 mg/kg, route oral; details: in vivo
[34] = Volume of distribution in Homo sapiens (human) at 150 mg; format: ADME, organism-based; details: in vivo
Rattus norvegicus [35] = test: AUC (0 to infinity) in Rattus norvegicus Sprague-Dawley (rat) at 17.5 mg/kg, administered intramuscularly; format: ADME, organism-based, Plasma; set-up: dose 17.5 mg/kg, route intramuscular, time infinity; details: in vivo, im
Rhesus monkey [36] = test: Dose normalized AUC in Macaca mulatta (Rhesus monkey) at 7.5 mg/kg, administered intramuscularly; format: ADME, organism-based; set-up: dose 7.5 mg/kg, route intramuscular; details: in vivo, im
Rhesus monkey [37] = test: AUC (0 to infinity) in Macaca mulatta (Rhesus monkey) at 4 mg/kg, iv; format: ADME, organism-based, Plasma; set-up: time infinity, dose 4 mg/kg, route intravenous; details: in vivo
[38] = Elimination half life in Macaca mulatta (Rhesus monkey) at 50 mg/kg, po; format: ADME, organism-based; set-up: dose 50 mg/kg, route oral; details: in vivo, read-out: beta t1/2 (converted)
[39] = Elimination half life in Rattus norvegicus Sprague-Dawley (rat) at 17.5 mg/kg, po; format: ADME, organism-based; set-up: dose 17.5 mg/kg, route oral; details: in vivo, read-out: beta t1/2 (converted)
[40] = Elimination half life in Rattus norvegicus Sprague-Dawley (rat) at 30 mg/kg, administered intramuscularly; format: ADME, organism-based; set-up: dose 30 mg/kg, route intramuscular; details: in vivo, im, read-out: beta t1/2 (converted)

CCO[C@@H]1O[C@@H]2O[C@]3(C)CC[C@H]4[C@H](C)CC[C@@H]([C@H]1C)[C@@]24OO3 [ALPHA-ARTEETHER]
MRT [1]: 14.4 h | Tmax [2]: 1 h | MRT [3]: 0.6 h | CL (Rhesus monkey [4]): 26.7 mL/min/kg | Cmax [5]: 96.7 ng/mL | Tmax [6]: 0.5 h | Vd (Rattus norvegicus [7]): 253.3 L/kg | half-life [8]: 22 h | Cmax [9]: 33.4 ng/mL | AUC/dose (Rattus norvegicus [10]): 219.5 ng·h/mL | AUC/dose (Rattus norvegicus [11]): 392 ng·h/mL | AUC (Rattus norvegicus [12]): 73.8 ng·h/mL | Vd [13]: 3.6 L/kg | MRT [14]: 3.4 h | AUC/dose (Homo sapiens): 1721.9 ng·h/mL | MRT [15]: 1.8 h | Vd [16]: 4.1 L/kg | Tmax [17]: 5 min | Tmax [18]: 4.8 min | Cmax [19]: 184 ng/mL | MRT [20]: 47.8 h | half-life [21]: 21.7 h | AUC/dose (Rattus norvegicus [22]): 12.4 ng·h/mL | MRT [23]: 1.9 h | MRT [24]: 9.2 h | Cmax [25]: 52.3 ng/mL | Cmax [26]: 3.9 ng/mL | AUC/dose (Rattus norvegicus [27]): 27.3 ng·h/mL | AUC (Rattus norvegicus [28]): 111.5 ng·h/mL | Tmax [29]: 0.167 h | clearance [30]: 10 mL/min/kg | Vd (Rattus norvegicus [31]): 244.3 L/kg | AUC (Rattus norvegicus [32]): 1058.5 ng·h/mL | AUC/dose (Rhesus monkey [33]): 0.4 ng·h/mL | Vd [34]: 12 L/kg | AUC (Rattus norvegicus [35]): 1247.1 ng·h/mL | AUC/dose (Rhesus monkey [36]): 285.3 ng·h/mL | AUC (Rhesus monkey [37]): 754.4 ng·h/mL | half-life [38]: 2.7 h | half-life [39]: 1.7 h | half-life [40]: 11.9 h
